Our source for the IC50 values is patent US11370774B2, “Substituted benzofuran, benzopyrrole, benzothiophene, and structurally related complement inhibitors” (BioCryst Pharmaceuticals, Inc., priority 2018, dated 2022).

Where only a bound is given, the exact number is not on record here.

In general, IC50 refers to the concentration that inhibits the measured activity by half.

The target in the experiment is Factor D (Homo sapiens (Human), UniProt P00746). The experiment can be described thus: Factor D esterolytic assay (Z-Lys-SBzl substrate, DTNB, 405 nm). The format is biochemical. The following applies: Z-Lys-SBzl 1.29 mM, pH 7.5, 10% DMSO, tested a minimum of three times, read-out: Measured Ki (IC50) Value for Compounds: IC50. Summed up: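 Human Factor D ([…]) with 1.29 mM Z-Lys-SBzl in 100 mM HEPES, 500 mM NaCl, pH 7.5, 10% DMSO; substrate added immediately or after room-temperature preincubation. Released thiol reacted with DTNB, rate followed at 405 nm for 600 sec, 690 nm background subtracted. IC50 from percent inhibition versus uninhibited rate, n≥3.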
Sequence of Factor D (P00746 26-253): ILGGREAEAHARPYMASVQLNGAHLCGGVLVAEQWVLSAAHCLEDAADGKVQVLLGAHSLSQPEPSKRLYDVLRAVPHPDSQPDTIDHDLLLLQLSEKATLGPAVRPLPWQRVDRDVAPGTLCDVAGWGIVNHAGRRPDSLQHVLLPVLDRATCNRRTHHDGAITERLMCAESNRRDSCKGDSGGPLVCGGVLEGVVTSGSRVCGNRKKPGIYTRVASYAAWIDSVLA
As for `NCc1nccc(-c2cc(COc3ccccc3CC(=O)O)cc3c(C(F)(F)F)coc23)c1F` [Compound 181d, 2-(2-((7-(2-(aminomethyl)-3-fluoropyridin-4-yl)-3-(trifluoromethyl)benzofuran-5-yl)methoxy)phenyl)acetic acid], the concentration for half-maximal inhibition (IC50) is < 1 µM.

Take `NCc1cccc(-c2cc(COc3cc(Br)ccc3CC(=O)O)cc3ccoc23)c1` [Compound 182d, 2-(2-((7-(3-(aminomethyl)phenyl)benzofuran-5-yl)methoxy)-4-bromophenyl)acetic acid]: the concentration for half-maximal inhibition (IC50) is < 1 µM.

For the compound `Nc1ccc(-c2cc(COc3ccccc3CC(=O)O)cc3ccoc23)cc1` [Compound 183c, 2-(2-((7-(4-aminophenyl)benzofuran-5-yl)methoxy)phenyl)acetic acid], the IC50 is > 10 µM. With `Nc1cccc(-c2cc(COc3ccccc3CC(=O)O)cc3ccoc23)c1` [Compound 184c, 2-(2-((7-(3-aminophenyl)benzofuran-5-yl)methoxy)phenyl)acetic acid], the IC50 was in the range of 1 to 10 µM.

As for `NCc1cc(-c2cc(COc3ccccc3CC(=O)O)cc3cc(CCO)oc23)ccn1` [Compound 185c, 2-(2-((7-(2-(aminomethyl)pyridin-4-yl)-2-(2-hydroxyethyl)benzofuran-5-yl)methoxy)phenyl)acetic acid], the IC50 is < 1 µM.

Turning to `NC(CF)c1cccc(-c2cc(COc3ccccc3CC(=O)O)cc3ccoc23)c1` (centres unmarked) [Compound 186c, 2-(2-((7-(3-(1-amino-2-fluoroethyl)phenyl)benzofuran-5-yl)methoxy)phenyl)acetic acid], the IC50 is < 1 µM. Under `CCCc1cc2cc(COc3ccccc3CC(=O)O)cc(-c3cccc(CN)c3)c2o1` [Compound 187f, 2-(2-((7-(3-(aminomethyl)phenyl)-2-propylbenzofuran-5-yl)methoxy)phenyl)acetic acid] stands < 1 µM; under `CCCc1cc2cc(COc3ccccc3CC(=O)O)cc(-c3cccc(CN)c3F)c2o1` [Compound 188b, 2-(2-((7-(3-(aminomethyl)-2-fluorophenyl)-2-propylbenzofuran-5-yl)methoxy)phenyl)acetic acid], < 1 µM. Take `CCCc1cc2cc(COc3ccccc3CC(=O)O)cc(-c3ccnc(CN)c3)c2o1` [Compound 189c, 2-(2-((7-(2-(aminomethyl)pyridin-4-yl)-2-propylbenzofuran-5-yl)methoxy)phenyl)acetic acid]: the IC50 was < 1 µM. For `CCCc1cc2cc(COc3ccccc3CC(=O)O)cc(-c3ccnc(CN)c3F)c2o1` [Compound 190c, 2-(2-((7-(2-(aminomethyl)-3-fluoropyridin-4-yl)-2-propylbenzofuran-5-yl)methoxy)phenyl)acetic acid], the IC50 was < 1 µM.

On to `Cc1noc2c(-c3cccc(CN)c3)cc(COc3ccccc3CC(=O)O)cc12` [Compound 191h, 2-(2-((7-(3-(aminomethyl)phenyl)-3-methylbenzo[d]isoxazol-5-yl)methoxy)phenyl)acetic acid], for which the half-maximal inhibitory concentration (IC50) is < 1 µM.

Regarding `CS(=O)(=O)n1ccc2c(-c3cccc(CN)c3)cc(COc3ccccc3CC(=O)O)cc21` [Compound 192e, 2-(2-((4-(3-(aminomethyl)phenyl)-1-(methylsulfonyl)-1H-indol-6-yl)methoxy)phenyl)acetic acid], the IC50 was < 1 µM.

For `NCc1ccc(-c2cc(COc3ccccc3CC(=O)O)cc3ccoc23)cc1` [Compound 193c, 2-(2-((7-(4-(aminomethyl)phenyl)benzofuran-5-yl)methoxy)phenyl)acetic acid], the 50% inhibitory concentration (IC50) was 1 to 10 µM. With `NCc1cccc(-c2cc(COc3ccccc3CC(=O)O)cc3cc(CNCC4CCCNC4)oc23)c1` (centres unmarked) [Compound 194d, 2-(2-((7-(3-(aminomethyl)phenyl)-2-(((piperidin-3-ylmethyl)amino)methyl)benzofuran-5-yl)methoxy)phenyl)acetic acid], the half-inhibitory concentration (IC50) is < 1 µM. The figure for `NCCCNCc1cc2cc(COc3ccccc3CC(=O)O)cc(-c3cccc(CN)c3)c2o1` [Compound 195d, 2-(2-((7-(3-(aminomethyl)phenyl)-2-(((3-aminopropyl)amino)methyl)benzofuran-5-yl)methoxy)phenyl)acetic acid] is < 1 µM. Under `NCCNCc1cc2cc(COc3ccccc3CC(=O)O)cc(-c3cccc(CN)c3)c2o1` [Compound 196d, 2-(2-((2-(((2-aminoethyl)amino)methyl)-7-(3-(aminomethyl)phenyl)benzofuran-5-yl)methoxy)phenyl)acetic acid] stands < 1 µM; under `NCc1cccc(-c2cc(COc3cc(N)ccc3CC(=O)O)cc3ccoc23)c1` [Compound 197c, 2-(4-amino-2-((7-(3-(aminomethyl)phenyl)benzofuran-5-yl)methoxy)phenyl)acetic acid], < 1 µM.

In the case of `CS(=O)(=O)n1ccc2c(-c3cccc(CN)c3F)cc(COc3ccccc3CC(=O)O)cc21` [Compound 198b, 2-(2-((4-(3-(aminomethyl)-2-fluorophenyl)-1-(methylsulfonyl)-1H-indol-6-yl)methoxy)phenyl)acetic acid], the IC50 was < 1 µM. The figure for `NCc1cccc(-c2cc(COc3ccccc3CC(=O)O)cc3cc(C(F)(F)F)oc23)c1` [Compound 199f, 2-(2-((7-(3-(aminomethyl)phenyl)-2-(trifluoromethyl)benzofuran-5-yl)methoxy)phenyl)acetic acid] is < 1 µM; for `CC(C)Cc1cc2cc(COc3ccccc3CC(=O)O)cc(-c3cccc(CN)c3F)c2o1` [Compound 200e, 2-(2-((7-(3-(aminomethyl)-2-fluorophenyl)-2-isobutylbenzofuran-5-yl)methoxy)phenyl)acetic acid] it is < 1 µM; for `CC(C)Cc1cc2cc(COc3ccccc3CC(=O)O)cc(-c3cccc(CN)c3)c2o1` [Compound 201b, 2-(2-((7-(3-(aminomethyl)phenyl)-2-isobutylbenzofuran-5-yl)methoxy)phenyl)acetic acid] it is < 1 µM. Take `Cc1ccc(CC(=O)O)c(OCc2cc(-c3cccc(CN)c3)c3occc3c2)c1` [Compound 202c, 2-(2-((7-(3-(aminomethyl)phenyl)benzofuran-5-yl)methoxy)-4-methylphenyl)acetic acid]: the IC50 is < 1 µM.

Take `NCc1cccc(-c2cc(COc3cc(C4CC4)ccc3CC(=O)O)cc3ccoc23)c1` [Compound 203c, 2-(2-((7-(3-(aminomethyl)phenyl)benzofuran-5-yl)methoxy)-4-cyclopropylphenyl)acetic acid]: the IC50 was < 1 µM.

Consider `Nc1ccc2c(-c3cc(COc4ccccc4CC(=O)O)cc4ccoc34)ncnn12` [Compound 204e, 2-(2-((7-(7-aminopyrrolo[2,1-f][1,2,4]triazin-4-yl)benzofuran-5-yl)methoxy)phenyl)acetic acid], for which the half-inhibitory concentration (IC50) is > 10 µM. Under `NCc1cccc(-c2cc(COc3ccc(F)cc3CC(=O)O)cc3ccoc23)c1` [Compound 205d, 2-(2-((7-(3-(aminomethyl)phenyl)benzofuran-5-yl)methoxy)-5-fluorophenyl)acetic acid] stands < 1 µM; under `NCc1ccc(-c2cc(COc3ccccc3CC(=O)O)cc3ccoc23)s1` [Compound 206c, 2-(2-((7-(5-(aminomethyl)thiophen-2-yl)benzofuran-5-yl)methoxy)phenyl)acetic acid], < 1 µM; under `NCc1ccc(-c2cc(COc3ccccc3CC(=O)O)cc3ccoc23)o1` [Compound 207c, 2-(2-((7-(5-(aminomethyl)furan-2-yl)benzofuran-5-yl)methoxy)phenyl)acetic acid], < 1 µM.

As for `NCc1cccc(-c2cc(COc3ccc(Br)cc3CC(=O)O)cc3ccoc23)c1` [Compound 208d, 2-(2-((7-(3-(aminomethyl)phenyl)benzofuran-5-yl)methoxy)-5-bromophenyl)acetic acid], the half-inhibitory concentration (IC50) is < 1 µM. `NCc1cccc(-c2cc(COc3ccc(N)cc3CC(=O)O)cc3ccoc23)c1` [Compound 209c, 2-(5-amino-2-((7-(3-(aminomethyl)phenyl)benzofuran-5-yl)methoxy)phenyl)acetic acid]: the IC50 was < 1 µM. Under `CN1CCC(N(C)Cc2cc3cc(COc4ccccc4CC(=O)O)cc(-c4cccc(CN)c4)c3o2)CC1` [Compound 210c, 2-(2-((7-(3-(aminomethyl)phenyl)-2-((methyl(1-methylpiperidin-4-yl)amino)methyl)benzofuran-5-yl)methoxy)phenyl)acetic acid] stands < 1 µM; under `CS(=O)(=O)n1ccc2c(-c3ccnc(CN)c3)cc(COc3ccccc3CC(=O)O)cc21` [Compound 211c, 2-(2-((4-(2-(aminomethyl)pyridin-4-yl)-1-(methylsulfonyl)-1H-indol-6-yl)methoxy)phenyl)acetic acid], < 1 µM; under `NCc1cc(-c2cc(COc3ccccc3CC(=O)O)cc3[nH]ccc23)ccn1` [Compound 211e, 2-(2-((4-(2-(aminomethyl)pyridin-4-yl)-1H-indol-6-yl)methoxy)phenyl)acetic acid], < 1 µM.

Consider `NCc1cccc(-c2cc(COc3ccccc3CC(=O)O)cc3c2ccn3S(=O)(=O)C2CC2)c1` [Compound 212e, 2-(2-((4-(3-(aminomethyl)phenyl)-1-(cyclopropylsulfonyl)-1H-indol-6-yl)methoxy)phenyl)acetic acid], for which the IC50 was < 1 µM. On to `NCc1cccc(-c2cc(COc3ccccc3CC(=O)O)cc3c2ccn3S(=O)(=O)C2CC2)c1F` [Compound 213b, 2-(2-((4-(3-(aminomethyl)-2-fluorophenyl)-1-(cyclopropylsulfonyl)-1H-indol-6-yl)methoxy)phenyl)acetic acid], for which the half-maximal inhibitory concentration (IC50) was < 1 µM. The figure for `NCc1cccc(-c2cc(COc3ccccc3CC(=O)O)cc3ccsc23)c1` [Compound 214f, 2-(2-((7-(3-(aminomethyl)phenyl)benzo[b]thiophen-5-yl)methoxy)phenyl)acetic acid] is < 1 µM.
